Patent US10442835B2, “Water-soluble rapamycin derivatives” (Zhejiang Hisun Pharmaceutical Co., Ltd., priority 2016, dated 2019)
Values joined by “and” are separate entries in the source; they are usually repeats but may differ in a detail not shown here. Equal entries are not always repeated.

Experiments:
[1] = system: human liver cancer cell HepG2; assay: In vitro activity assay, growth of HepG2 (thymidine incorporation); format: cell-based; settings: 48 h
Text: (§1) The anti-tumor activity and toxicity of the compounds according to the present invention can be assayed through standard operational procedures of pharmacological experiment. The experiments carried out herein can test the inhibitory effect of the compounds according to the present invention on the growth of human liver cancer cell HepG2, lung cancer cell NCI460, prostate cancer cell DU145, prostate cancer cell PC3, and human breast cancer cell MDA-MB-435. The operational procedure used is briefly described below by taking the inhibitory activity assay against human liver cancer cell HepG2 as an example.
Human liver cancer cell HepG2 grew in the follow medium:
Preparation of the growth medium: BRL minimum essential medium with Earle Salts (500 mL), with the addition of the following agents:
(§2) The operational procedure for the assay is as follows:
(§3) 1. Cells after being trypsinized were inoculated in 96-well plates at a concentration of 10^4 cells/well, and allowed to grow in a medium with a final volume of 200 μL. The 96-well plates after inoculation are allowed to stand for 24 hours at 37° C., in order to allow the cells to adhere to the surface of the wells.
(§4) 2. The medium was removed by carefully pipetting without disturbing the cell monolayer. 200 μL Fresh medium was added into each well. It is arranged to make it possible to collect samples from enough wells to run the experiments in triplicate.
(§5) 3. The compounds to be tested according to the present invention were dissolved into 10 μL phosphate buffered solution (PBS) and incubated for 48 h at 37° C.
(§6) 4. In the last 6 h of incubation, cells in each well of the 96-well plates were labeled by 1 microcurie T thymidine (New England Nuclear thymidine), by adding 10 μL PBS containing 1 microcurie T thymidine (which was added into the PBS on the day of collecting the samples for test). The 96-well plates were then returned to the incubator and incubated for the last 6 h.
(§7) 5. Without disturbing the cell monolayer, the radioactive medium was removed by pipetting. Then 50 μL of BRL 10×trypsin was added to each well, followed by incubation at 37° C. for 10 minutes or until the cell monolayer was detached from the bottom (or the wall) of each well. Samples were collected on glass-fiber diskettes using a Skatron 96-well cell harvester. Cells depositing on the glass-fiber diskettes were counted in a Wallac Betaplate counter.

lung cancer cell NCI460 = assay: In vitro activity assay, growth of NCI460; format: cell-based; settings: NCI-460, 48 h
Text: as §1, §2, §3, §4, §5, §6, §7

[2] = system: prostate cancer cell DU145; assay: In vitro activity assay, growth of DU145; format: cell-based; settings: Homo sapiens; DU-145; 48 h
Text: as §1, §2, §3, §4, §5, §6, §7

prostate cancer cell PC3 = assay: In vitro activity assay, growth of PC3; format: cell-based; settings: 48 h
Text: as §1, §2, §3, §4, §5, §6, §7

[3] = system: human breast cancer cell MDA-MB-435; assay: In vitro activity assay, growth of MDA-MB-435; format: cell-based; settings: 48 h
Text: as §1, §2, §3, §4, §5, §6, §7

[4] = system: human lung cancer cell NCI-H460; assay: In vivo inhibitory activity against NCI-H460 tumor in nude mice; settings: everolimus 5 mg/kg, compound I-1 6.8 mg/kg, qw 4×
DU145 = assay: In vivo tumor inhibitory efficacy against DU145 tumor in nude mice, intragastrical vs injection; settings: G1 everolimus 5 mg/kg intragastrical, 3×/w, 4 w
Experimental: (§8) DU145 (the 3rd generation) tumors in the rapid proliferation stage inoculated in the axilla of nude mice were cut into tumor lumps with a size of 1 mm*1 mm*1 mm and then were inoculated subcutaneously to the right limb of nude mice using a trocar under a sterile condition. When the tumors grow to 150-200 mm^3, the mice were randomly divided into three groups and then administrated with the compounds for 4 weeks. The major diameter (a) and the minor diameter (b) of the tumors were measured 2 or 3 times a week. The tumor volume (TV) was calculated with the following equation: TV=½×a×b^2. Tumors were stripped and weighted at Day 28 and the tumor inhibition rate was calculated using the following equation: (tumor weight of control−tumor weight of experimental group)/tumor weight of control×100%.
(§9) The nude mice were divided into 3 groups with 4 mice per group when the tumors averagely grew to about 185-200 mm^3, depending on the growth regularity of the tumor and the dosage regimen.

[5] = system: human renal cell carcinoma OS-RC-2; assay: In vivo inhibitory activity against human renal cell carcinoma OS-RC-2 in nude mice
Experimental: The tumor inhibition rate was calculated.

[6] = Body weight of DU145 tumor nude mice; settings: G1 everolimus 5 mg/kg intragastrical, 3×/w, 4 w;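 also: dosing started once xenografts reached 150-200 mm^3, with mice randomized into three groups, loss of body weight served as an indirect sign of drug toxicity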
Experimental: as §8, §9
G1: positive drug group: Everolimus (5 mg/kg, qw, 4 w, 3×/w); administration route: intragastrical administration;

[7] = Body weight of NCI-H460 tumor nude mice; settings: everolimus 5 mg/kg, compound I-1 6.8 mg/kg, qw 4×;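 also: Tumor-bearing mice dosed for 4 weeks once tumors reached 150–200 mm^3, with a vehicle control group, and body weight loss taken as an indirect sign of drug toxicity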
Experimental: NCI-H460 (the 3rd generation) tumors in the rapid proliferation stage inoculated in the axilla of nude mice were cut into tumor lumps with a size of 1 mm*1 mm*1 mm and then were inoculated subcutaneously to the right limb of nude mice using a trocar under a sterile condition. When the tumors grew to 150˜200 mm^3, the mice were divided into groups and then administrated with the compounds for 4 weeks. The major diameter (a) and the minor diameter (b) of the tumors were measured two or three times a week. The tumor volume (TV) and the relative tumor proliferation rate (T/C) were calculated. The equation for calculating the tumor volume is: TV=½×a×b^2. The equation for calculating the relative tumor proliferation rate is T/C=TRTC/CRTV (TRTC: average relative tumor volume in the treatment group; CRTV: average relative tumor volume in the vehicle control group). Tumors were stripped and weighted at Day 28 and the tumor-inhibition rate was calculated with the following equation: (tumor weight of control−tumor weight of experimental group)/tumor weight of control×100%.
Grouping method: the mice were divided into 3 groups with 6 mice per group when the tumors averagely grew to about 195 mm^3, depending on the growth regularity of the tumor and the dosage regimen. Administration route: intragastrical administration.
G1: Control (vehicle, qw 4×, iv)
G2: Positive drug group: Everolimus (5 mg/kg, qw 4×, iv)

Compound `CO[C@H]1C[C@@H]2CC[C@@H](C)[C@@](O)(O2)C(=O)C(=O)N2CCCC[C@H]2C(=O)O[C@H]([C@H](C)C[C@@H]2CC[C@@H](OCCO)[C@H](OC)C2)CC(=O)[C@H](C)/C=C(\C)[C@@H](O)[C@@H](OC)C(=O)[C@H](C)C[C@H](C)/C=C/C=C/C=C/1C` [Everolimus, reference compound] has an IC50 [1] of 52.29 ± 0.006 µM, an IC50 (lung cancer cell NCI460) of 99.811 ± 0.004 µM and an IC50 [2] of 57.327 ± 0.005 µM. The IC50 (prostate cancer cell PC3) was 30.27 ± 0.006 µM, the IC50 [3] was 62.57 ± 0.003 µM and the “Mean Volume of Tumor” value ([4]; Day 0) was 194.8659 mm^3. The “Mean Volume of Tumor” value ([4]; Day 3) was 264.7517 mm^3, the “TRTV (average relative tumor volume in the treatment group)” value ([4]; Day 3) was 1.3586 and the “Mean Volume of Tumor” value ([4]; Day 7) was 356.6133 mm^3. For the same compound, the “TRTV (average relative tumor volume in the treatment group)” value ([4]; Day 7) was 1.8300, the “Mean Volume of Tumor” value ([4]; Day 10) was 457.1105 mm^3 and the “TRTV (average relative tumor volume in the treatment group)” value ([4]; Day 10) was 2.3458. The “Mean Volume of Tumor” value ([4]; Day 14) was 626.5192 mm^3, the “TRTV (average relative tumor volume in the treatment group)” value ([4]; Day 14) was 3.2151 and the “Mean Volume of Tumor” value ([4]; Day 17) was 730.3766 mm^3. For the same compound, the “TRTV (average relative tumor volume in the treatment group)” value ([4]; Day 17) was 3.7481, the “Mean Volume of Tumor” value ([4]; Day 21) was 1386.2102 mm^3 and the “TRTV (average relative tumor volume in the treatment group)” value ([4]; Day 21) was 6.6005. The “Mean Volume of Tumor” value ([4]; Day 24) was 1593.5901 mm^3, the “TRTV (average relative tumor volume in the treatment group)” value ([4]; Day 24) was 7.1515 and the “Tumor Inhibition Rate” value ([4]; Day 28, by tumor weight) was 56% and 56.01%. The “Mean Volume of Tumor” value ([4]; Day 28) was 1955.7073 mm^3, the “TRTV (average relative tumor volume in the treatment group)” value ([4]; Day 28) was 9.5230 and the “Tumor Weight ± SD” value ([4]; Day 28) was 1.1741 ± 0.3687 g. For the same compound, the “Mean Volume of Tumor” value (DU145; Day 0) was 198.71 mm^3, the “Mean Volume of Tumor” value (DU145; Day 3) was 216.57 mm^3 and the “Mean Volume of Tumor” value (DU145; Day 7) was 208.07 mm^3. The “Mean Volume of Tumor” value (DU145; Day 10) was 215.24 mm^3, the “Mean Volume of Tumor” value (DU145; Day 14) was 236.94 mm^3 and the “Mean Volume of Tumor” value (DU145; Day 17) was 268.62 mm^3. For the same compound, the “Mean Volume of Tumor” value (DU145; Day 21) was 298.50 mm^3, the “Mean Volume of Tumor” value (DU145; Day 24) was 289.57 mm^3 and the “Mean Volume of Tumor” value (DU145; Day 28) was 302.22 mm^3. The “Tumor Inhibition Rate” value ([5]; G2 everolimus 2 mg/kg ig 3×/qw) was 35.6%, the “Tumor Inhibition Rate” value ([5]; G3 everolimus 6 mg/kg ig 3×/qw) was 41.1% and the “Tumor Weight ± SD” value ([5]; end of experiment, G3 everolimus 6 mg/kg ig 3×/qw) was 0.4093 ± 0.3863 g. For the same compound, the “Body Weight, mean value” ([6]; Day 0) was 24.36 g, the “Body Weight, mean value” ([6]; Day 3) was 24.68 g and the “Decrease rate (body weight)” value ([6]; Day 3) was −1.32%. The “Decrease in body weight” value ([6]; Day 3 vs Day 0) was -0.32 g, the “Body Weight, mean value” ([6]; Day 7) was 24.99 g and the “Decrease rate (body weight)” value ([6]; Day 7) was −2.59%. For the same compound, the “Decrease in body weight” value ([6]; Day 7 vs Day 0) was -0.63 g, the “Body Weight, mean value” ([6]; Day 10) was 24.93 g and the “Decrease rate (body weight)” value ([6]; Day 10) was −2.32%. For the same compound, the “Decrease in body weight” value ([6]; Day 10 vs Day 0) was -0.57 g, the “Body Weight, mean value” ([6]; Day 14) was 24.94 g and the “Decrease rate (body weight)” value ([6]; Day 14) was −2.38%. For the same compound, the “Decrease in body weight” value ([6]; Day 14 vs Day 0) was -0.58 g, the “Body Weight, mean value” ([6]; Day 17) was 25.88 g and the “Decrease rate (body weight)” value ([6]; Day 17) was −6.24%. The “Decrease in body weight” value ([6]; Day 17 vs Day 0) was -1.52 g, the “Body Weight, mean value” ([6]; Day 21) was 25.27 g and the “Decrease rate (body weight)” value ([6]; Day 21) was −3.75%. The “Decrease in body weight” value ([6]; Day 21 vs Day 0) was -0.91 g, the “Body Weight, mean value” ([6]; Day 24) was 25.33 g and the “Decrease rate (body weight)” value ([6]; Day 24) was −3.96%. For the same compound, the “Decrease in body weight” value ([6]; Day 24 vs Day 0) was -0.97 g, the “Body Weight, mean value” ([6]; Day 28) was 25.31 g and the “Decrease rate (body weight)” value ([6]; Day 28) was −3.90%. For the same compound, the “Decrease in body weight” value ([6]; Day 28 vs Day 0) was -0.95 g, the “Body Weights, mean value” ([7]; Day 0) was 24.50 g and the “Body Weights, mean value” ([7]; Day 3) was 24.38 g. For the same compound, the “Decrease rate (body weight)” value ([7]; Day 3) was 0.51%, the “Decrease in body weight” value ([7]; Day 3 vs Day 0) was 0.13 g and the “Body Weights, mean value” ([7]; Day 7) was 25.44 g. For the same compound, the “Decrease rate (body weight)” value ([7]; Day 7) was −3.82%, the “Decrease in body weight” value ([7]; Day 7 vs Day 0) was -0.94 g and the “Body Weights, mean value” ([7]; Day 10) was 24.50 g. The “Decrease rate (body weight)” value ([7]; Day 10) was 0.00%, the “Decrease in body weight” value ([7]; Day 10 vs Day 0) was 0.00 g and the “Body Weights, mean value” ([7]; Day 14) was 25.68 g. For the same compound, the “Decrease rate (body weight)” value ([7]; Day 14) was −4.83%, the “Decrease in body weight” value ([7]; Day 14 vs Day 0) was -1.18 g and the “Body Weights, mean value” ([7]; Day 17) was 25.39 g. The “Decrease rate (body weight)” value ([7]; Day 17) was −3.63%, the “Decrease in body weight” value ([7]; Day 17 vs Day 0) was -0.89 g and the “Body Weights, mean value” ([7]; Day 21) was 26.13 g. For the same compound, the “Decrease rate (body weight)” value ([7]; Day 21) was −6.65%, the “Decrease in body weight” value ([7]; Day 21 vs Day 0) was -1.63 g and the “Body Weights, mean value” ([7]; Day 24) was 25.09 g. The “Decrease rate (body weight)” value ([7]; Day 24) was −2.41%, the “Decrease in body weight” value ([7]; Day 24 vs Day 0) was -0.59 g and the “Body Weights, mean value” ([7]; Day 28) was 26.14 g. For the same compound, the “Decrease rate (body weight)” value ([7]; Day 28) was −6.67% and the “Decrease in body weight” value ([7]; Day 28 vs Day 0) was -1.64 g.
